Measurements: patent publication US12559504B2, “Benzotriazole derivative” (UBE CORPORATION, priority 2019, dated 2026)

Columns and labels:
[1] = Metabolism test using human liver microsome fractions; type: in vitro ADME; conditions: human liver microsomes, test compound 10 μmol/L, NADPH and UDP-glucuronic acid, 37° C.
Description: A reaction composition solution (comprising NADPH Regenerating System, Solution A (manufactured by Corning Inc., REF. 451220) (50 μL), NADPH Regenerating System, Solution B (manufactured by Corning Inc., REF. 451200) (10 μL), 250 mM UDP-glucuronic acid (40 μL), UGT Reaction Mix Solution B (manufactured by Corning Inc., REF. 451320) (200 μL), and distilled water (640 μL)) in which human liver microsomes (manufactured by Xenotech, Cat. No. H610) or monkey liver microsomes (manufactured by Xenotech, Cat. No. P2000) (corresponding to 1 mg of protein) were suspended was prepared. After the solution was incubated at 37° C. for 5 minutes, each test compound dissolved into DMSO (manufactured by FUJIFILM Wako Pure Chemical Corporation, Code No. 043-07216) was added to the solution so that the final concentration was set to be 10 μmol/L, and a reaction was initiated. After 0, 5, 10, 15, 20, and 30 minute(s) from the initiation of the metabolism reaction, 100 μL of the reaction solution was taken out of the reaction system, and added to 200 μL of acetonitrile to stop the reaction. After the reaction was completed, the reaction solution was subjected to a work-up such as deproteinization, and then subjected to an UV-HPLC analysis to carry out the following analysis.
The peak area of each test compound was calculated by LabSolution software (Shimadzu Corporation), and the residual ratio (%) at each culture time of test material was calculated by the following equation. Residual ratio (%)=Peak area at each culture time[…]Peak area at 0 (initial time)
Next, the residual amount (nmol/mg/mL) at each culture time of test material was calculated by the following equation. Residual amount (nmol/mg/mL)=Initial concentration of reaction solution (10 nmol/mg/mL)×residual ratio÷100
Finally, a graph in which the reaction time was plotted at horizontal axis and the residual amount was plotted at longitudinal axis was prepared on Excel, and the inclination was calculated as the elimination rate (pmol/min/mg-P) within the time range in which the graph was deemed linear.

[2] = test system: NQO1; experiment: NQO1 expression induction test in mouse kidney (single administration); type: in vivo; conditions: Mus musculus, po, 6 h, BALB/c mouse kidney, 6 hours after administration, ratio to control group
Description: Each test compound solution for administration was prepared by dissolving or suspending each test compound into a 0.5 w/v % aqueous solution of methylcellulose (0.5% MC) (manufactured by Wako Pure Chemical Industries, Ltd.).
Each prepared test compound was orally administered to a BALB/c mouse (female, provided by Charles River Laboratories Japan, Inc.). Non-treated group was used as a control group. After 6 hours from the administration, each mouse was anesthetized with isoflurane, and euthanized with bloodletting by incising a lower aorta. Immediately, the left kidney was excised, cut into small pieces, and then the cut kidney pieces were transferred to RNA later (Thermo Fisher Scientific).
Then, mRNA was extracted from the collected kidney pieces by using NucleoSpin (registered trademark) RNA Kit (Takara Bio Inc.), each concentration was quantified by FlexStation3 (Molecular Devices), and then the concentration was adjusted to a constant concentration. A reverse transcription synthesis of cDNA was carried out from the mRNA with the constant concentration by using PrimeScript™ RT reagent Kit with gDNA Eraser and PCR Thermal Cycler (Takara Bio Inc.). Then, in addition to the resulting cDNA, SYBR (registered trademark) Premix Ex Taq™ II and NQO1, GAPDH primer (Takara Bio Inc.) were used to carry out Real-time PCR by PCR Thermal Cycler Dice Real time (Takara Bio Inc.), and the NQO1 expression was quantified by using the GAPDH expression as the reference.
In order to evaluate the NQO1 expression induction in each group, the NQO1 expression induction ratio was calculated by using the following equation. (NQO1 expression induction ratio)=(Average NQO1 expression in test compound administered group)[…](Average NQO1 expression in control group)

[3] = target: T1, GST fusion human Keap1 (amino acid residue: 325-624) protein (Homo sapiens, UniProt Q14145); experiment: Keap1-Nrf2 binding inhibition test (fluorescence polarization); conditions: compound concentration of 100 nM; read-out: inhibition rate
T1 construct: GST fusion human Keap1 (amino acid residue: 325-624) protein; purchased Protein tech Ag0779
Description: The inhibitory activity of each test compound on the binding between Nrf2 and Keap1 was measured by the fluorescence polarization method. A solution consisting of 20 mM tris-hydrochloride pH7.5 (NIPPON GENE CO., LTD., REF: 318-90225), 150 mM NaCl [FUJIFILM Wako Pure Chemical. Corporation, REF: 191-01665], 0.05% Tween 20 (BioRAD, REF: 161-0781), and 5 mM DTT (FUJIFILM Wako Pure Chemical Corporation, REF: 049-08972) was used as a buffer solution. To a test compound solution (70 μL) adjusted to each concentration with 10% DMSO (FUJIFILM Wako Pure Chemical Corporation, REF: 043-07216) was added a buffer solution (350 μL) comprising 6 nM FITC-labeled Nrf2 peptide (FITC-Ahx-LDEETGEFL-NH2, Invitrogen) and 0.2 mg/mL of BSA (FUJIFILM Wako Pure Chemical Corporation, REF: 017-22231). Each 120 μL of the resulting mixture was dispensed into a black 96 well plate, and a buffer solution (80 μL) comprising 2.5 nM GST fusion human Keap1 (amino acid residue: 325-624) protein (Protein tech, REF: Ag0779) was added thereto. A Keap1-free buffer solution was added to some wells to prepare negative controls. Meanwhile, compound-free wells were used as positive controls. The plate was incubated at room temperature for 30 minutes, and each fluorescence polarization at excitation wavelength of 482 nm and fluorescence wavelength of 530 nm was measured by using a plate reader Clariostar (BMG Labtech). The fluorescence polarization of the negative control was set to be 100% inhibition, fluorescence polarization of the positive control was set to be 0% inhibition, and the inhibition rate of each test compound at 100 nM was calculated by using the following equation. Inhibition rate (%)=100−((Fluorescence polarization when test compound was added−Fluorescence polarization of negative control)/(Fluorescence polarization of positive control−Fluorescence polarization of negative control))×100

[4] = test system: NQO1; experiment: NQO1 enzyme induction test (in vitro) in Hepa1c1c7 cells; type: cell-based; conditions: Mus musculus, Hepa-1c1c7, 48 h, concentration to elevate the NQO1 activity by 1.5 times, about 48 hours, read-out: EC150
Description: Each NQO1 assay was carried out by modifying a known method (Anal Biochem 1998; 169: 328-, Methods Enzymol 2004; 382: 243-). Hepa1c1c7 cells (mouse hepatocyte line manufacture by DS Pharma Biomedical Co., Ltd., REF. No. 95090613) were cultured (5% CO2, 37° C.). The cells were cultured in MEMα (manufactured by FUJIFILM Wako Pure Chemical Corporation, REF. 135-15175) medium comprising 10% FBS (manufactured by GIBCO, REF. 10082) and […]/streptomycin/amphotericin B (manufactured by GIBCO, REF. 15240), and dispensed into a 96 well plate (manufactured by Costar, REF. 3610) at 2.0×10^3 cells/well. On the next day, test compound (final concentration of […]: 0.1%) dissolved into DMSO (manufactured by FUJIFILM Wako Pure Chemical Corporation, REF. 043-07216) was added to each well, and the plate was further cultured for about 48 hours.
A cell lysate manufactured by Cell signaling Technology, Inc. (REF. 9803) with the addition of a Protease Inhibitor manufactured by Roche Diagnostics K.K. (REF. 11-873580001) was used. A reaction solution (which is a solution comprising trishydrochloric acid (25 mM), albumin […], Tween-20 (0.01%), glucose-6-phosphate dehydrogenase (2 U/mL), flavin-adenine dinucleotide (5 μM), glucose-6-phosphate (1 μM), nicotinamide adenine dinucleotide phosphate (30 μM), 3-(4,5-dimethyl-2-thiazolyl)-2,5-diphenyltetrazolium bromide (MTT) (0.03%), and menadione (50 μM)), and a stop solution (which is a solution comprising dicumarol (0.3 mM) and potassium dihydrogen phosphate (5 mM), pH 7.4) were prepared. After the medium was removed, cell lysate (50 μL) was added thereto, and the resulting mixture was shaken at room temperature for 20 minutes. The reaction solution (200 μL) was added thereto, and the resulting mixture was left to stand at room temperature for 5 minutes. The stop solution (50 μL) was added thereto, and absorbance at 540 nm (reference 750 nm) was measured.
Cell number was measured by Cell Titer Glo assay (manufactured by Promega Corporation, REF. G9242) by using another plate prepared according to the same conditions as those described above, and correction of absorbance was carried out. The test result was analyzed by Excel, and the EC150 value which is the concentration to elevate the NQO1 activity by 1.5 times was calculated.

T1 sequence (Q14145 325-624): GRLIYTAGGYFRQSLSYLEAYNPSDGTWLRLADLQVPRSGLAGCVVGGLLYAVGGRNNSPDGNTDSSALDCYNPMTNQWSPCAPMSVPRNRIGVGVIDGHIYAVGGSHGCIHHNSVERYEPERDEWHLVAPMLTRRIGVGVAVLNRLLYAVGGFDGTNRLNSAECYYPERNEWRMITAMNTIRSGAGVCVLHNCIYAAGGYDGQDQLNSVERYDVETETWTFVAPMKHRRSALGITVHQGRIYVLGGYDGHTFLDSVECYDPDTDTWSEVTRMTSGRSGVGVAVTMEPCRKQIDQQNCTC

SMILES | Human metabolic rate [1] | fold induction at 10 mg/kg [2] | inhibition at 0.1 µM [3] [%] | EC (1.5-fold NQO1 activity) [4] [µM] | fold induction at 20 mg/kg ([2]; Dose 20 mg/kg)
CC[C@@H]1CN(Cc2cc(C(c3ccc4c(nnn4C)c3C)C(C)(C)C(=O)O)ccc2C)Cc2cc3cccnc3cc2O1 (single isomer, unassigned) [Example 39] | A (metabolic rate<100 pmol/min/mg protein) | 3 to 6 | ≥ 50 |  | 
CC[C@@H]1CN(Cc2cc(C(c3ccc4c(nnn4C)c3C)C(C)(C)C(=O)O)ccc2C)Cc2cc3ncccc3cc2O1 (single isomer, unassigned) [Example 41] | A (metabolic rate<100 pmol/min/mg protein) | > 6 | ≥ 50 |  | 
CC[C@@H]1CN(Cc2cc(C(c3ccc4c(nnn4C)c3C)C(C)(C)C(=O)O)ccc2C)Cc2c(ccc3cn[nH]c23)O1 (single isomer, unassigned) [Example 43] | A (metabolic rate<100 pmol/min/mg protein) | > 6 | ≥ 50 |  | 
CC[C@@H]1CN(Cc2cc(C(c3ccc4c(nnn4C)c3C)C(C)(C)C(=O)O)ccc2C)Cc2ncc3ccccc3c2O1 (single isomer, unassigned) [Example 45] | A (metabolic rate<100 pmol/min/mg protein) | > 6 | ≥ 50 |  | 
CC[C@@H]1CN(Cc2cc(C(c3ccc4c(nnn4C)c3C)C(C)(C)C(=O)O)ccc2C)Cc2cnc3ccccc3c2O1 (single isomer, unassigned) [Example 47] | B (100≤metabolic rate<150 pmol/min/mg protein) | > 6 | ≥ 50 |  | 
Cc1ccc(C(c2ccc3c(nnn3C)c2C)C(C)(C)C(=O)O)cc1CN1Cc2cc3ncccc3cc2OC2(CC2)C1 (single isomer, unassigned) [Example 85, 3-(3-((3′H-spiro[cyclopropane-1,2′-[1,4]oxazepino[7,6-g]quinoline]-4′(5′H)-yl)methyl)-4-methylphenyl)-3-(1,4-dimethyl-1H-benzo[d][1,2,3]triazol-5-yl)-2,2-dimethylpropanoic Acid] | A (metabolic rate<100 pmol/min/mg protein) |  | ≥ 50 | 0.0005 to 0.005 | 
CC[C@@H]1CN(Cc2cc(C(c3ccc4c(nnn4C)c3C)C3(C(=O)O)CCC3)ccc2C)Cc2cc3ncccc3cc2O1 (single isomer, unassigned) [Example 87] | A (metabolic rate<100 pmol/min/mg protein) |  | ≥ 50 | 0.0005 to 0.005 | 
CC[C@H]1CN(Cc2cc(C(c3ccc4c(nnn4C)c3C)C(C)(C)C(=O)O)ccc2C)Cc2ncc3ccccc3c2O1 (single isomer, unassigned) [Example 89-(b)] | E (metabolic rate≥250 pmol/min/mg protein) | 3 to 6 | ≥ 50 |  | 
CC[C@@H]1CN(Cc2cc(C(c3ccc4c(nnn4C)c3C)C(C)(C)C(=O)O)ccc2C)Cc2c(ccc3c2CCCC3)O1 (stereo partly drawn) [Example 5-(b), 3-(1,4-dimethyl-1H-benzo[d][1,2,3)triazol-5-yl)-3-(3-(((R)-4-ethyl-3,4,8,9,10,11-hexahydronaphtho(1,2-f) (1,4]oxazepin-2(1H)-yl)methyl)-4-methylphenyl)-2,2-dimethylpropanoic Acid] |  |  |  | 0.05 to 0.5 | 
CCCC1CN(Cc2cc(C(c3ccc4c(nnn4C)c3C)C(C)(C)C(=O)O)ccc2C)Cc2cc3ncccc3cc2O1 (stereo not shown) [Example 77-(b), 3-(1,4-dimethyl-1H-benzo[d][1,2,3]triazol-5-yl)-2,2-dimethyl-3-(4-methyl-3-((2-propyl-2,3-dihydro-[1,4]oxazepino[7,6-g]quinolin-4 (5H)-yl)methyl)phenyl)propanoic Acid] | B (100≤metabolic rate<150 pmol/min/mg protein) |  | ≥ 50 |  | > 6
